“And” between values parts separate entries of the source, which are not always exact repeats. Equal values may be shown once. Read-outs that look alike come from different tables or passages of the source. Marks after values point to notes of the source that are not given here.
Legend:
[1] = pH 2.7
[2] = system: Fusarium graminearum; format: cell-based
[3] = system: Leptosphaeria nodorum; assay: Leptosphaeria nodorum test (wheat) / protective; format: in vivo; conditions: 500 ppm active compound, protective spray, evaluated 7-9 days after inoculation
Procedure: Leptosphaeria nodorum Test (Wheat)/Protective
Solvent: 49 parts by weight of N,N-dimethylformamide
Emulsifier: 1 part by weight of alkylaryl polyglycol ether
To produce a suitable preparation of active compound, 1 part by weight of active compound is mixed with the stated amounts of solvent and emulsifier, and the concentrate is diluted with water to the desired concentration.
To test for protective activity, young wheat plants are sprayed with the preparation of active compound at the stated application rate. […] The plants are then placed in a greenhouse at 90% rel. atmospheric humidity and a temperature of 22° C.
Evaluation is carried out 7-9 days after the inoculation. 0% means an efficacy which corresponds to that of the control, whereas an efficacy of 100% means that no infection is observed.

[4] = system: Alternaria solani; assay: Alternaria test (tomato) / protective; format: in vivo; conditions: 500 ppm active compound, protective spray, evaluated 7 days after inoculation
In short: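 Young tomato plants sprayed protectively with compound formulated in DMF with alkylaryl polyglycol ether emulsifier and diluted in water to the application rate. After inoculation, plants held at 96% rel. humidity and 20° C. Efficacy scored 7 days post-inoculation: 0% equals untreated control, 100% no infection.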

[5] = system: Pyrenophora teres; assay: In vivo test on Pyrenophora teres (barley net blotch); conditions: dose of 500 ppm; barley plants; grading 12 days after contamination
In short: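 Barley plants (Plaisant) grown at 12° C. sprayed at 1-leaf stage with compound in acetone/Tween/DMSO diluted in water; 24 h later inoculated with P. teres spores (12,000 spores/ml). Incubated 24 h at ~20° C., 100% RH, then 12 days at 80% RH; graded 12 days post-inoculation against untreated controls.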

| Structure (SMILES) | log p [1] | % Inhibition of fungal growth at 50 μM ([2]; 50 μM) | % Inhibition of DON/AcDON at 50 μM ([2]; 50 μM, 7 days at 28° C.) [%] | efficacy [3] [%] | efficacy [4] | protection [5] | % Inhibition of DON/AcDON at 50 μM [2] [%] | logP value of the minor isomer [1] |
| --- | --- | --- | --- | --- | --- | --- | --- | --- |
| CCC(=O)Nc1cc(-c2cn(C(C)C)nc2-c2ccc(Cl)s2)ccn1 [Example 246] | 2.78^[b] | 91% | 99 | 90 | 95% | 100% |  |  |
| CC(C)n1cc(-c2ccnc(NC(=O)C3CC3)c2)c(-c2ccc(Cl)s2)n1 [Example 247] | 2.94^[b] | 91% | 99 | 80 | 95% | 100% |  |  |
| CCC(C)C(=O)Nc1cc(-c2cn(C(C)C)nc2-c2ccc(Cl)s2)ccn1 (stereo not shown) [Example 249] | 3.61^[b] | 11% | 99 | 80 | 95% | 95% |  |  |
| CCC(C)C(=O)Nc1cc(-c2cn(CC)nc2-c2ccc(Cl)s2)ccn1 (stereo not shown) [Example 252] | 3.13^[b] | 99% | 99 | 70 | 95% | 100% |  |  |
| CC(=O)Nc1cc(-c2cn(C(C)C)nc2-c2ccc(Cl)s2)ccn1 [Example 256] | 2.45^[b] | 100% | 99 | 80 | 100% | 100% |  |  |
| CC(C)C(=O)Nc1cc(-c2cn(C(C)C)nc2-c2ccc(Cl)s2)ccn1 [Example 257] | 3.21^[b] | 81% | 99 | 90 | 95% | 95% |  |  |
| CC(C)CC(=O)Nc1cc(-c2cn(C(C)C)nc2-c2ccc(Cl)s2)ccn1 [Example 258] | 3.63^[b] | 54% | 94 | 70 | 95% | 100% |  |  |
| CCC(=O)Nc1cc(-c2cn(CC)nc2-c2ccc(Cl)s2)ccn1 [Example 263] | 2.4^[b] | 100% | 99 | 80 | 95% | 90% |  |  |
| CCn1cc(-c2ccnc(NC(=O)C3CC3)c2)c(-c2ccc(Cl)s2)n1 [Example 264] | 2.52^[b] | 100% | 99 | 80 | 90% | 90% |  |  |
| CCC(=O)Nc1cc(-c2cn(C)nc2-c2ccc(Cl)s2)ccn1 [Example 278] | 2.05^[b] | 100% | 98 | 80 | 90% | 90% |  |  |
| Cn1cc(-c2ccnc(NC(=O)C3CC3)c2)c(-c2ccc(Cl)s2)n1 [Example 279] | 2.16^[b] | 100% | 98 | 70 | 80% | 95% |  |  |
| Cn1cc(-c2ccnc(NC(=O)CC3CC3)c2)c(-c2ccc(Cl)s2)n1 [Example 281] | 2.54^[b] | 100% | 99 | 80 | 90% | 90% |  |  |
| CCn1cc(-c2ccnc(NC(C)=O)c2)c(-c2ccc(Cl)s2)n1 [Example 284] | 2.1^[b] | 100% | 99 | 80 | 95% | 100% |  |  |
| CCn1cc(-c2ccnc(NC(=O)C(C)C)c2)c(-c2ccc(Cl)s2)n1 [Example 285] | 2.77^[b] | 90% | 99 | 80 | 95% | 95% |  |  |
| CCn1cc(-c2ccnc(NC(=O)CC(C)C)c2)c(-c2ccc(Cl)s2)n1 [Example 286] | 3.15^[b] | 68% | 99 | 90 | 90% | 80% |  |  |
| CC(=O)Nc1cc(-c2cn(C)nc2-c2ccc(Cl)s2)ccn1 [Example 287] | 1.79^[b] | 94% | 99 | 80 | 90% | 95% |  |  |
| CC(C)C(=O)Nc1cc(-c2cn(C)nc2-c2ccc(Cl)s2)ccn1 [Example 288] | 2.39^[b] | 92% | 99 | 70 | 90% | 95% |  |  |
| CC(=O)Nc1cc(-c2cnn(/C=C/F)c2-c2ccc(Cl)s2)ccn1 [Example 292] | 2.84^[b] | 45% | 100 | 70 | 90% | 95% |  |  |
| CC(=O)N(C(C)=O)c1cc(-c2cn(C(C)C)nc2-c2ccc(Cl)s2)ccn1 [Example 304] | 3.33^[b] | 87% and 90% |  | 80 | 95% | 95% | 100 |  |
| CCn1cc(-c2ccnc(N)c2)c(-c2ccc(Cl)s2)n1 [Example 307] | 1.54^[b] | 45% | 80 | 78 | 80% and 94% | 80% and 95% |  |  |
| CCC(C)n1cc(-c2ccncc2)c(-c2ccc(Br)s2)n1 (stereo not shown) [Example 354] | 2.15^[b] | 97% | 99 | 70 | 90% | 95% |  |  |
| CC(C)n1cc(-c2ccncc2)c(-c2ccc(Br)s2)n1 [Example 387] | 1.88^[b] | 93% | 99 | 90 | 100% | 80% |  |  |
| CC(C)Cn1cc(-c2ccncc2)c(-c2ccc(Br)s2)n1 [Example 405] | 2.1^[b] | 90% | 99 | 94 | 94% | 70% |  | (1.98) |
| CC(C)Cn1cc(-c2ccncc2)c(-c2cccs2)n1 [Example 407] | 1.5^[b] | 99% | 100 | 94 | 90% | 90% |  |  |
